Measured values: patent publication US12578271B2, “Gram-stain differentiation with nonlinear light scattering” (Temple University—Of The Commonwealth System of Higher …, priority 2020, dated 2026)

Tests used:
[1] = test system: E. coli (mc4100 strain); assay: time-resolved second-harmonic scattering (SHS) of dye uptake by living bacteria, Gram-negative; format: cell-based
Protocol: (§1) Discrete colonies of E. coli (mc4100 strain) and L. rhamnosus ([…] strain) were grown on Luria Broth agar (Sigma-Aldrich) plates. Experimental samples, prepared from single colonies, were cultured (37° C., 150 rpm shaking) in Terrific Broth (TB, Sigma-Aldrich) to late-log/early stationary phase. Samples were lightly pelletized by centrifugation (ca. 1500 g for 2 min) and washed in 1×PBS to remove waste and residual TB. […] Final sample concentrations were maintained at 10 μM (MG) and 50 μM (CV). The 800 nm output from a Ti:sapphire laser (Coherent, […], oscillator only, 50 fs pulse duration, 4 nJ pulse energy, 76 MHz repetition rate, 0.4 W average power) was used as a fundamental light source. As depicted in FIG. 2A, SHS was measured while the sample circulated through a liquid flow system. To ensure collection of the SH signal solely from the sample, a long-pass filter (Schott, RG695) was placed in front of the focusing lens immediately before the sample jet. […] The signal was then detected by a photomultiplier (Hamamatsu, […]), amplified (Stanford Research Systems, SR440), and processed through a correlated photon counting system (Stanford Research Systems, SRS SR400). As a means of separating the surface specific SH response from the hyper-Rayleigh scattering (HRS) of the bulk dye solution, SHS was first measured from the dye solution in the absence of cells. […] To ensure rapid mixing of the suspension, in addition to circulating through the system, the contents of the sample reservoir were continuously stirred.

[2] = test system: L. rhamnosus (R0011 strain); assay: time-resolved second-harmonic scattering (SHS) of dye uptake by living bacteria, Gram-positive; format: cell-based, Lactobacillus (L.) rhamnosus
Protocol: as §1

[3] = test system: E. coli (mc4100 strain); conditions: prior SHS studies, living E. coli; cited from earlier work
[4] = pH=7.2; cited from earlier work
[5] = E. coli added ca. 10 s, 10 μM MG, 50 μM CV, FIG. 2B

SMILES | time of onset of second rise of SHS signal (dye has diffused across PM and adsorbs onto outer surface of CM) [1, 5] | time of second decay of SHS signal (dye crosses the CM) ([1]; E. coli added ca. 10 s, 10 μM MG, FIG. 2B) [s] | MG uptake kinetics compared with E. coli ([2]; 10 μM MG, FIG. 6) | ability to cross bacterial membranes (OM, CM) [3] | fraction of molecules in solution that are neutral [4] | time until which second rise of SHS signal continues to grow, then stable plateau ([1]; E. coli added ca. 10 s, 50 μM CV, FIG. 2B) | late time SHS signal relative to HRS baseline ([1]; Gram-negative cells, 50 μM CV, FIG. 4) | fraction of CV from the bulk extracellular solution drawn into the Gram-positive cells ([2]; 50 μM CV) | reduction of the HRS background ([2]; 50 μM CV, after fast transport event, observation time 2000+ s, FIG. 4) [%] | removal of CV from the bulk solution ([2]; 50 μM CV, inferred from reduction of HRS background) | late time SHS signal relative to HRS baseline ([2]; Gram-positive cells, 50 μM CV, FIG. 4) | second rise of SHS signal (arrival at CM) ([2]; within the 2000+ s observation time, also at higher concentrations) | fraction of molecules that are cationic [4] [%]
CN(C)c1ccc(C(=C2C=CC(=[N+](C)C)C=C2)c2ccccc2)cc1 [MG, malachite green] | around 25 s | ~120 | nearly identical transport curves | cross both the OM and CM | more than 50% |  |  |  |  |  |  |  | 
CN(C)c1ccc(C(=C2C=CC(=[N+](C)C)C=C2)c2ccc(N(C)C)cc2)cc1 [CV, crystal violet] | roughly 70 s |  |  | unable to cross the bacterial CM |  | about 400 s | positive response | ca. 30% | 30 | ca. 15 μM | negative response | no second rise of SHS signal is ever observed | 100
